The text below walks through data of publication PMC9646836, “Tetrahydroquinolinone derivatives exert antiproliferative effect on lung cancer cells through apoptosis induction” (Scientific Reports, 2022).

In one series the test system is MCF-7. Put plainly: MTT cell viability assay, MCF-7. The class given is cell-based, human. The settings on record: Homo sapiens, MCF7, 72 h, mean ± SD, n = 3. As for the experimental part: (§1) All new tetrahydroquinoline derivatives were assessed for cytotoxicity on a broad panel of cancer and normal cell lines, using the MTT assay. The half-inhibitory growth inhibitory concentration (IC50) values of each compound were calculated after 72 h of treatment and presented in Table 1. […] In this assay, the IC50 value of 5-FU and ETP was recorded as a positive control.
(§2) Non-small cell lung cancer cells A549 (CCL-185), breast cancer cells MCF-7 ([…]), hepatocarcinoma cells HepG2 ([…]), normal kidney cells HEK293 (CRL-1573), and osteosarcoma cells U-2 OS (HTB-96) were obtained from the American Type Culture Collection. HCT-116 cell line was kindly provided by prof. Bert Vogelstein (Johns Hopkins University, Howard Hughes Medical Institute, USA). The obtained A549 and MCF-7 cells were cultured in RPMI-1640 medium, HepG2 cells in Minimum Essential Medium Eagle medium, HEK-293 cells in Dulbecco’s Modified Eagle’s medium, and U-2 OS and HCT-116 cells in McCoy’s […] medium. All culture media were supplemented with 10% fetal bovine serum, 2 mM L-glutamine, and antibiotics (penicillin 62.6 µg/ml and streptomycin 40 µg/ml; Sigma-Aldrich). Both cancer and normal cells were cultured at 37 °C under a humidified atmosphere with 5% or 10% CO2 and routinely screened for Mycoplasma contamination. All materials and reagents were obtained from Corning unless stated otherwise.
(§3) The cytotoxic effect of the synthesized compounds was assessed by the MTT (4,5-dimethylthiazol-2-yl-2,5-diphenyltetrazoliumbromide; Sigma-Aldrich) assay. Briefly, the cells were seeded into 96-well transparent flat-bottom plates and allowed to attach overnight. On the next day, the cells were treated with compounds in the range of 0–50 µM for 72 h. Dimethyl sulfoxide (DMSO; Merck) and 5-fluorouracil (5-FU; Sigma-Aldrich) were used as a reference. After exposure to the compounds, 20 μl of the MTT solution at a concentration of 4 mg/ml was added to each well, and the plates were incubated again for 2–3 h at 37 °C. Next, the media in the wells was replaced with 100 μl DMSO to solubilize the formazan crystals. The absorbance was measured at 540 nm using an ASYS UVM340 microplate reader (Biochrom Ltd.). The IC50 value of the compounds was calculated using GraphPad Prism 9 software, based on the curves plotted with survival as a function of dose, averaged from three independent experiments.
For orientation: Tetrazolium assays rely on reduction of a dye to a coloured formazan, in cell work by metabolically active cells.

Another series has as its system HepG2. Briefly: MTT cell viability assay, HepG2. The class given is cell-based. Particulars: Homo sapiens, HepG2, 72 h, mean ± SD, n = 3. On the procedure: as §1, §2, §3
The next series concerns Hela. Put plainly: MTT cell viability assay, Hela. The class given is cell-based. Particulars: Homo sapiens, HeLa, 72 h, mean ± SD, n = 3. As for the experimental part: as §1, §3
A further series relates to HEK293. Briefly: MTT cell viability assay, HEK293 normal kidney cells. The class given is cell-based, human. As for the experimental part: as §1, §2, §3
Series [1] deals with A549 cells. Briefly: Colony formation assay. The class given is cell-based, human. The settings on record: A549, 24 h pretreatment, 9 days culture, vs DMSO-treated control. On the procedure:
HCT-116 and A549 cells were seeded into six-well plates at a density of 500 cells per well and allowed to attach overnight. On the next day, the cells were pretreated with compound 4a at different concentrations or with 1% v/v DMSO for 24 h. After incubation, the cells were washed and cultured for 9 days. Next, the cells were fixed with methanol for 20 min and stained with 0.5% crystal violet (Sigma-Aldrich). Finally, the plates were dried overnight and imaged using a UVITEC Cambridge imaging system. Quantification was performed with ImageJ software. The surviving fraction was calculated as previously described. Each experiment was repeated three times.

Series [2] concerns A549 cells. Briefly: Cell cycle progression (propidium iodide, flow cytometry). The class given is cell-based, human. Particulars: A549, IC50 concentration. As for the experimental part:
A549 and HCT-116 cells were incubated with the tested compounds at their IC50 concentrations for 24, 48, and 72 h. DMSO (1% v/v) was used as a reference (Sigma-Aldrich). After incubation, the cells were collected in trypsin, fixed with 75% ice-cold ethanol, and stored overnight at − 20 °C. Then, the cells were stained with 20 μg/ml propidium iodide (Sigma-Aldrich) and 50 μg/ml RNaseA (Thermo Fisher Scientific) in phosphate-buffered saline (PBS) for 30 min at room temperature (RT). The content of DNA in cells was determined by flow cytometry (Guava EasyCyte 8 cell sorter; Merck Millipore) using FlowJo software v10. Each experiment was repeated three times.

Take `O=c1[nH]c2c(c(-c3ccccc3)c1Cc1cccc3ccccc13)CCCC2` [Compound 4a, 3-(1-naphthylmethyl)-4-phenyl-5,6,7,8-tetrahydro-1H-quinolin-2-one]: the concentration for half-maximal inhibition (IC50) (usually the point on the concentration scale where inhibition reaches its midpoint) in the series with MCF-7 was over 50 µM; in the series on HepG2, over 50 µM; in the series with Hela it was over 50 µM; in the series with HEK293 (Homo sapiens, HEK293, MTT, 72 h, normal kidney cells, mean ± SD, n = 3), 49 ± 2.21 µM. Moreover, in the series with HEK293 (tested concentrations, compared to A549 and HCT-116), the “suppressive effect on human normal HEK293 kidney cells” value was “almost no suppressive effect”. Besides, the “number of observed colonies” value in the series on A549 cells [1] was “significantly decreased”. Further, the “fraction of cells at the G0/G1 phase” value in the series with A549 cells [2] is given as “time-dependent decrease”. Moreover, the “fraction of cells in sub-G0 phase” value with A549 cells [2] is listed as “concomitant increase”. Further, the “fraction of cells in G2 phase” value stood at 15.5% with A549 cells [2] (24 h (DMSO 3.2%)) and 33.8% in the series on A549 cells [2] (48 h (DMSO 3.2%)).
